Source: patent US12138277B2, “Oligosaccharides for use in the treatment of Parkinson's disease” (UNIVERSITA' DEGLI STUDI DI MILANO, priority 2018, dated 2024)

Key:
[1] = system: Neuroblastoma cells of murine origin; experiment: Proteomic analysis by mass spectroscopy of treated neuroblastoma cells; type: cell-based; details: after 24 h of treatment
Description: Neuroblastoma cells of murine origin were treated with β-Gal-(1-3)-β-GalNAc-(1-4)-[α-Neu5Ac-(2-3)]-β-Gal-(1-4)-Glc to induce neuronal differentiation (Chiricozzi et al. 2017 Journal of Neurochemistry 143:645-659). After 24 h of treatment, the cells were collected for protein analysis. […] These proteins are involved in cellular signaling of i) excitotoxicity neuroprotection; ii) inhibition of oxidative stress; iii) inhibition of microglia hyperactivation and downregulation of proinflammatory molecules.

Neuroblastoma cells = experiment: Excitotoxicity protection: DCB-induced death of neuroblastoma cells; type: cell-based
Description: In Parkinson's disease, and more generally in the degenerative diseases of the central nervous system, there is a strong activation of the immune system, oxidative stress and excitotoxicity. Neuroblastoma cells were then treated with DCB (3′,4′-Dichlorobenzamyl hydrochloride) to induce an accumulation of intracellular calcium, an experimental strategy which mimics glutamate-induced excitotoxicity.

[2] = Crossing of the blood-brain barrier: radioactivity in brain areas after administration of tritiated oligosaccharide; type: in vivo, Wild-type mice (C57BL/6); details: intraperitoneal, subcutaneous or intravenous administration; 10 μg tritiated oligosaccharide; 1 hour and 22 hours after administration
Description: Wild-type mice (C57BL/6) of about 3 months were treated with β-[6-^3H]Gal-(1-3)-β-GalNAc-(1-4)-[α-Neu5Ac-(2-3)]-β-Gal-(1-4)-Glc.
Administration was performed intraperitoneally, subcutaneously or intravenously (Orlando P. et al 1979, Pharmacological Research Communications 11:759-773). For the intravenous route, the injection was performed in the central vein of the tail. The treatment was carried out with 10 μg of tritiated oligosaccharide (10 μCi) dissolved in 0.1 ml of saline. For each experimental group 5 animals were used. 1 hour and 22 hours after administration, the animals were sacrificed by cardiac perfusion (10 min), in order to remove the blood, especially in the central nervous system. The brain was removed and the different areas (cortex, hippocampus, substantia nigra, cerebellum, trunk) were identified and separated. Tissue samples were lyophilized, homogenized and the relative associated radioactivity was detected at the β-counter (Orlando et al 1979, Pharmacological Research Communication 11:759-773).

Molecule | number of proteins whose expression is induced [1] | toxicity of the oligosaccharide to cells (Neuroblastoma cells; neuroblastoma cells) | protection of cells from DCB-induced death (Neuroblastoma cells; neuroblastoma cells treated with DCB (3′,4′-Dichlorobenzamyl hydrochloride)) | oligosaccharide reaching the central nervous system / crossing the blood-brain barrier (associated radioactivity in brain areas) [2]
CC(=O)N[C@H]1[C@H](O[C@@H]2[C@H](O[C@]3(C(=O)O)C[C@H](O)[C@@H](NC(C)=O)[C@H]([C@H](O)[C@H](O)CO)O3)[C@@H](O)[C@H](O[C@H]3[C@H](O)[C@@H](O)C(O)O[C@@H]3CO)O[C@@H]2CO)O[C@H](CO)[C@H](O)[C@@H]1O[C@@H]1O[C@H](CO)[C@H](O)[C@H](O)[C@H]1O (stereo partly drawn) [β-Gal-(1-3)-β-GalNAc-(1-4)-[α-Neu5Ac-(2-3)]-β-Gal-(1-4)-Glc] | 320 | without being toxic to cells | able to protect cells from DCB-induced death | –
β-[6-^3H]Gal-(1-3)-β-GalNAc-(1-4)-[α-Neu5Ac-(2-3)]-β-Gal-(1-4)-Glc | – | – | – | a fair amount of the oligosaccharide is able to reach the central nervous system, including the substantia nigra, within a few hours
